Measured values from EPA's ToxValDB 9.5 (doi:10.2903/j.efsa.2009.195r).
≈ marks a conversion by molar mass, not a printed value.

How the values were obtained:
Apis mellifera = conditions: acute; duration: 48 hours; oral; unspecified; mortality
Daphnia magna = conditions: chronic/long-term; duration: 21 days; reproduction
Anas platyrhynchos = conditions: oral, mortality

Q: With `COC(=O)c1cccc(C)c1S(=O)(=O)NC(=O)Nc1nc(OCC(F)(F)F)nc(N(C)C)n1` [Triflusulfuron-methyl] as the molecule, how does the LD50 (Apis mellifera) read?
A: The LD50 was greater than 100 µg/piece.

Q: And the LD50 (Rattus norvegicus; acute, oral, mortality)?
A: The LD50 was greater than 5000 mg/kg-day.

Q: What about the NOAEL (Rattus norvegicus; chronic, duration: 2 years, oral, diet, body weight) of the same molecule?
A: The NOAEL was 4.06 mg/kg-day.

Q: What about the NOAEL (Rattus norvegicus; developmental, development) of the same molecule?
A: Its NOAEL is 120 mg/kg-day.

Q: And the NOAEL (Rattus norvegicus; reproduction developmental, body weight)?
A: Its NOAEL is 5.8 mg/kg-day.

Q: What about the NOAEL (Rattus norvegicus; subchronic, duration: 90 days, oral, body weight) of the same molecule?
A: The NOAEL was 6.6 mg/kg-day.

Q: What about the LC50 (Oncorhynchus mykiss; acute, duration: 96 hours, mortality) of the same molecule?
A: Its LC50 is 730 µg/mL (≈ 1480 µM).

Q: And the NOEC (Oncorhynchus mykiss; chronic/long-term, duration: 97 days, growth)?
A: Its NOEC is 57.7 mg/L.

Q: What about the NOEC (Daphnia magna) of the same molecule?
A: Its NOEC is 11 mg/L.

Q: And the LC50 (Tagia sp.; acute, duration: 14 days, mortality)?
A: The LC50 was 1000 mg/kg.

Q: And the NOEC (Tagia sp.; chronic/long-term, duration: 56 days)?
A: Its NOEC is 250 mg/kg.

Q: What about the LD50 (Anas platyrhynchos; acute, unspecified) of the same molecule?
A: Its LD50 is greater than 2250 mg/kg-day.

Q: What about the LC50 (Anas platyrhynchos; short-term, feed) of the same molecule?
A: Its LC50 is greater than 1540 mg/kg-day.

Q: And the LD50 (Colinus virginianus; acute, oral, mortality)?
A: The LD50 was greater than 2250 mg/kg-day.

Q: What about the NOEC (Colinus virginianus; reproduction developmental) of the same molecule?
A: Its NOEC is 27.6 mg/kg-day.
